Test results from US9273043B2, “TRPV1 antagonists including dihydroxy substituent and uses thereof” (Purdue Pharma L.P., priority 2011, dated 2016).
Marks after values point to notes of the source that are not given here.

Test system: MIA-induced osteoarthritis pain
Assay: MIA-induced osteoarthritis model, weight bearing difference (WBD) test
Type: in vivo
Conditions: rat MIA
Excerpt: Osteoarthritis Pain: To assess the actions of a Compound of Formula (I) for the treatment or prevention of osteoarthritis pain, the rat monosodium iodo-acetate (MIA, i.e., sodium 2-iodoacetate) induced osteoarthritis model was used. Intra-articular injection of MIA causes joint degeneration characterized by osteolysis and swelling, with displacement of the patella, and reductions in bone mineral content and bone mineral density (Pomonis et al., “Development and pharmacological characterization of a rat model of osteoarthritis pain,” Pain 114: 339-346 (2005)). Under isoflurane anaesthesia, an intra-articular injection of 2 mg of MIA (Sigma-Aldrich) in 50 μl of saline was administered through the infrapatellar ligament of the knee joint of the right hind leg of the male, 6 week old Crl:CD(SD) rats. Control rats received an intra-articular injection of 50 μl of saline into the knee joint of the right hind leg. The left knee joint of all rats was untreated. […] Thus, in the assessment for osteoarthritis pain relief through gripping capability determinations, the 24 hour time point was the start of the next day when drug-in-vehicle was again orally administered (24 hours after the prior administration) for certain dosages. […] Weight Bearing Difference Test as an Assessment of Osteoarthritis Related Pain: The weight bearing difference test provides an accepted assessment of the efficacy of clinically useful analgesic drugs with respect of osteoarthritis related pain (see Pomonis et al. (2005)). WBD was assessed using a Linton Incapacitance Tester (Linton Instrumentation, Norfolk, UK). Rats were placed on the apparatus so that they were standing on their hind legs, and allowed to acclimate to the apparatus. When stationary, the weight born on each leg was measured over a 3s period. Three readings were taken for each rat at each time point; the average of the three readings was used for data analysis. WBD was expressed as “% WR”, i.e., the percentage of weight born on the MIA-injected right hind leg, using the following formula: [formula] where WR is the weight on the right hind leg and WL is the weight on the left (untreated) hind leg. […] The “% WRR”, i.e., the percentage reversal of the % WR impediment occurring post-MIA injection, was determined for each dosage at each time point using the following formula: [formula] where (% WR)Post-Drug is the % WR determined at each post-oral-administration time-point for each dose of each administered substance, (% WR)Pre-Drug is the % WR determined pre-oral-administration of each administered substance, and (% WR)Control Rat is the % WR determined for control rats (receiving the saline injection into the right hind leg knee joint). With the exception of the controls (i.e., celecoxib, vehicle) where the student's t-test was used, Dunnett's test was conducted for the % WRR.

SMILES: CC1CN(c2ncc(C(O)CO)cc2F)CCN1C(=O)Nc1nc2cc(F)ccc2s1.O=C(O)C=CC(=O)O (stereo not shown)
- minimal effective dose: 1 mg/kg
- % WRR [mean] (oral 0.3 mg/kg, 1 h after administration): 4.3%
- % WRR [mean] (oral 0.3 mg/kg, 3 h after administration): 12.5%
- % WRR [mean] (oral 0.3 mg/kg, 5 h after administration): 7.1%
- % WRR [mean] (oral 0.3 mg/kg, 7 h after administration): 5.0%
- % WRR [mean] (oral 0.3 mg/kg, 24 h after administration): 0%
- % WRR [mean] (oral 1 mg/kg, 1 h after administration): 15.2%
- % WRR [mean] (oral 1 mg/kg, 3 h after administration): 28.8** %
- % WRR [mean] (oral 1 mg/kg, 3 h after administration, listed as product prepared with Compound A155(a) and fumaric acid): 28.8%
- % WRR [mean] (oral 1 mg/kg, 5 h after administration): 16.1** %
- % WRR [mean] (oral 1 mg/kg, 5 h after administration, listed as product prepared with Compound A155(a) and fumaric acid): 16.1%
- % WRR [mean] (oral 1 mg/kg, 7 h after administration): 8.8* %
- % WRR [mean] (oral 1 mg/kg, 7 h after administration, listed as product prepared with Compound A155(a) and fumaric acid): 8.8%
- % WRR [mean] (oral 1 mg/kg, 24 h after administration): 2.1%
- % WRR [mean] (oral 3 mg/kg, 1 h after administration): 20.9** %
- % WRR [mean] (oral 3 mg/kg, 3 h after administration): 34.5** %
- % WRR [mean] (oral 3 mg/kg, 5 h after administration): 23.4** %
- % WRR [mean] (oral 3 mg/kg, 7 h after administration): 9.5* %
- % WRR [mean] (oral 3 mg/kg, 24 h after administration): 3.7%
- % WRR [mean] (oral 10 mg/kg, 1 h after administration): 33.3** %
- % WRR [mean] (oral 10 mg/kg, 3 h after administration): 44.1** %
- % WRR [mean] (oral 10 mg/kg, 5 h after administration): 35.0** %
- % WRR [mean] (oral 10 mg/kg, 7 h after administration): 22.8** %
- % WRR [mean] (oral 10 mg/kg, 24 h after administration): 9.8%
- % WRR [mean] (oral 20 mg/kg, 1 h after administration): 41.9** %
- % WRR [mean] (oral 20 mg/kg, 1 h after administration, listed as product prepared with Compound A155(a) and fumaric acid): 41.9%
- % WRR [mean] (oral 20 mg/kg, 3 h after administration): 56.9** %
- % WRR [mean] (oral 20 mg/kg, 3 h after administration, listed as product prepared with Compound A155(a) and fumaric acid): 56.9%
- % WRR [mean] (oral 20 mg/kg, 5 h after administration): 46.9** %
- % WRR [mean] (oral 20 mg/kg, 5 h after administration, listed as product prepared with Compound A155(a) and fumaric acid): 46.9%
- % WRR [mean] (oral 20 mg/kg, 7 h after administration): 35.6** %
- % WRR [mean] (oral 20 mg/kg, 7 h after administration, listed as product prepared with Compound A155(a) and fumaric acid): 35.6%
- % WRR [mean] (oral 20 mg/kg, 24 h after administration): 19.8** %
- % WRR [mean] (oral 20 mg/kg, 24 h after administration, listed as product prepared with Compound A155(a) and fumaric acid): 19.8%
